Like-named read-outs stand apart in the source and are kept apart here.
Columns and labels:
Solubility in water = format: physicochemical
[1] = Optimum concentration (substance data tables; stabilizing effect)
Text: With respect to the stabilizing effect of optically active DIP it is most important that the substance is present in the form of potassium salt.

Water binding capability = format: physicochemical
Text: Moreover, the compound is thus of interest for the regulation and balancing of the skin's moisture characteristics. This is at least of additional advantage when the compound is used as a cosmetic agent.

[2] = Chemical, physical, pH and light stability; format: physicochemical
[3] = Biocompatibility / allergenic potential
model proteins = assay: Protection of model proteins; format: biochemical; settings: protecting model proteins
Procedure: Application related examinations were conducted with di-glycerol phosphate (DGP) aimed at protecting model proteins. As a penetration intensifier di-glycerol phosphate moreover ensures that these macro-molecules are also transported through several skin layers until they have reached their target destination.

proteins = assay: Protection against thermally induced denaturation of proteins; format: biochemical
Text: Little is known at the present time about the effect of DIP in general. This mainly due to the fact that only very little of this compound is available.

| SMILES | solubility in water (Solubility in water) | Optimum concentration [1] [mM] | capability of binding water (Water binding capability) | chemical and physical stability [2] | biocompatibility [3] | protective potential compared with glycerine (model proteins) | chemical and physical stability ([2]; listed as di-myo-inositol phosphate) | protective effect in respect of the thermally induced denaturation of proteins (proteins; first experiments) | protective effect in comparison with other compatible solutes (proteins; thermally induced denaturation of proteins) |
| --- | --- | --- | --- | --- | --- | --- | --- | --- | --- |
| O=P(O)(OCC(O)CO)OCC(O)CO (stereo not shown) [DGP, di-glycerol phosphate] | Excellent | 100 to 200 | highly capable of binding water | High | High | by far better protective potential |  |  |  |
| O=P(O)(O[C@@H]1[C@H](O)[C@H](O)[C@@H](O)[C@H](O)[C@H]1O)O[C@@H]1[C@@H](O)[C@H](O)[C@@H](O)[C@H](O)[C@@H]1O [DIP, di-myo-inositol phosphate] | Excellent | 250 to 400 | highly capable of binding water | High |  |  | great stability | excellent | far and decidedly better |

From patent US20040028631A1, “Cosmetic formulations” (priority 2000, published 2004)
